These results are taken from ChEMBL document CHEMBL1153103, “Bioisosterism of urea-based GCPII inhibitors: Synthesis and structure-activity relationship studies” (Bioorg Med Chem Lett, 2010).

Some results are limits rather than exact numbers.

Assay [1] has as its target T1, Glutamate carboxypeptidase 2 (Homo sapiens, UniProt Q04609). Put plainly: Inhibition of human cloned glutamate carboxypeptidase 2.
The target in assay [2] is T1, Glutamate carboxypeptidase 2. The experiment in a line: Inhibition of glutamate carboxypeptidase 2 in human LNCaP cells by fluorescence based NAALADase assay. Format: cell-based.

T1 sequence (Q04609 whole entry): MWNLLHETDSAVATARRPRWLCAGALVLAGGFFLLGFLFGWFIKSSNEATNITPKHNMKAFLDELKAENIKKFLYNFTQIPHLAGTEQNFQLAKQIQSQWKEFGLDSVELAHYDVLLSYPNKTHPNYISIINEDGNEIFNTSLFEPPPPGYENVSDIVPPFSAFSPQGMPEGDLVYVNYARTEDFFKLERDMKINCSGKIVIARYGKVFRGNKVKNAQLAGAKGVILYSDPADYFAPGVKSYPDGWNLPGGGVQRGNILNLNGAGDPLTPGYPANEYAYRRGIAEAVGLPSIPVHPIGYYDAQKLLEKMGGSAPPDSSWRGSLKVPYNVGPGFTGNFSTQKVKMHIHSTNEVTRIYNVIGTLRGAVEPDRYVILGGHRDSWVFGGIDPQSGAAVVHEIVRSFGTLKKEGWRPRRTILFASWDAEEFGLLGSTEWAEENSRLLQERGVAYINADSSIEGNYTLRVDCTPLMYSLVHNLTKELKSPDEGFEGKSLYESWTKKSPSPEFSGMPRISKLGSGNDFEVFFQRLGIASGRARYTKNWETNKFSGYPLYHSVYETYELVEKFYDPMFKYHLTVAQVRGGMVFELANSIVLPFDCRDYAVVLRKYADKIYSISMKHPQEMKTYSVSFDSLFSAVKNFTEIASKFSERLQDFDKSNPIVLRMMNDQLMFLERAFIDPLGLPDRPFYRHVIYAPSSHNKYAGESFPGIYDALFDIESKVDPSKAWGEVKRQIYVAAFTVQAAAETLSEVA

With `O=C(N[C@@H](CCCCNC(=O)c1ccc(I)cc1)C(=O)O)N[C@@H](Cc1cccs1)C(=O)O`, the affinity in assay [1] corresponds to a Ki of 0.0162 µM.
On the same count and under the same terms, with `CC(=O)SCCC[C@H](NC(=O)N[C@@H](CCCCNC(=O)c1ccc(I)cc1)C(=O)O)C(=O)O` the figure was 0.0241 µM.
`COC(=O)[C@H](CC(C)C)NC(=O)NC(C(=O)O)c1ccc(O)c(OC)c1` (some centres undefined) had a Ki in assay [2] of 0.153 µM.
In turn, `O=C(O)CCCNC(=O)N[C@@H](CCCCNC(=O)c1ccc(I)cc1)C(=O)O` had a Ki in assay [1] of 3.43 µM. That is a single-digit micromolar value.
Still for that read-out and setting: with `O=C(N[C@@H](CCCCNC(=O)c1ccc(I)cc1)C(=O)O)N[C@H](C(=O)O)c1ccc(O)cc1` the figure was 0.0851 µM.
Consider `COC(=O)[C@H](CC(C)C)NC(=O)NC(C(=O)O)c1ccc(O)c(F)c1` (some centres undefined), for which the inhibition constant (Ki) in assay [2] is 3 µM.
Turning to `N#CC[C@H](NC(=O)N[C@@H](CCCCNC(=O)c1ccc(I)cc1)C(=O)O)C(=O)O`, in assay [1], the Ki worked out at 0.132 µM.
The same measure, in the same setting: to `O=C(N[C@@H](CCCCNC(=O)c1ccc(I)cc1)C(=O)O)N[C@@H](Cc1ccncc1)C(=O)O` belongs 0.105 µM.
`CC(C)C[C@H](NC(=O)N[C@@H](Cc1ccc(O)c(I)c1)C(=O)O)C(=O)O` showed a Ki in assay [2] of 13 µM. That is a double-digit micromolar value.
Take `O=C(O)CNC(=O)N[C@@H](CCCCNC(=O)c1ccc(I)cc1)C(=O)O`: the affinity in assay [1], expressed as Ki, was 1.32 µM.
In the case of `COC(=O)[C@H](CC(C)C)NC(=O)N[C@@H](Cc1cccc(C(=O)O)c1)C(=O)O`, in assay [2], the Ki is more than 1000 µM.
Still for that read-out and setting: to `CC(C)C[C@H](NC(=O)N[C@@H](Cc1ccc(O)cc1)C(=O)O)C(=O)O` belongs 0.7 µM.
The same measure, in the same setting: with `CC(C)C[C@H](NC(=O)NC(C(=O)O)c1cccc(O)c1)C(=O)O` (some centres undefined) the figure was more than 1000 µM.
`CC(C)C[C@H](NC(=O)NC(C(=O)O)c1cc(O)cc(O)c1)C(=O)O` (some centres undefined) gave a Ki in assay [2] of 13 µM.
The same measure, in the same setting: with `COC(=O)[C@H](CC(C)C)NC(=O)N[C@H](C(=O)O)c1ccc(O)c(I)c1` the figure was 0.475 µM.
As for `NC(=O)C[C@H](NC(=O)N[C@@H](CCCCNC(=O)c1ccc(I)cc1)C(=O)O)C(=O)O`, the Ki in assay [1] worked out at 0.32 µM.
On the same count and under the same terms, to `O=C(N[C@@H](CCCCNC(=O)c1ccc(I)cc1)C(=O)O)N[C@@H](Cc1cccnc1)C(=O)O` belongs 0.0972 µM; to `O=C(N[C@@H](CCCCNC(=O)c1ccc(I)cc1)C(=O)O)N[C@@H](CC1CO1)C(=O)O` (some centres undefined), 0.254 µM; to `O=C(N[C@@H](CCCCNC(=O)c1ccc(I)cc1)C(=O)O)NC1(C(=O)O)CC1`, 0.318 µM.
As to `C#CC[C@H](NC(=O)N[C@@H](CCCCNC(=O)c1ccc(I)cc1)C(=O)O)C(=O)O`, in assay [1], affinity was put at a Ki of 0.0053 µM. Compared with the last compound, the Ki is about 60-fold lower.
Same read-out and setting: to `O=C(N[C@@H](CCCCNC(=O)c1ccc(I)cc1)C(=O)O)N[C@H](Cc1ccco1)C(=O)O` belongs 0.794 µM.
In assay [2], `COC(=O)[C@H](CC(C)C)NC(=O)N[C@@H](Cc1cccc(O)c1)C(=O)O` had a Ki of more than 1000 µM.
Turning to `O=C(N[C@@H](CCCCNC(=O)c1ccc(I)cc1)C(=O)O)N[C@@H](Cc1ccco1)C(=O)O`, the Ki in assay [1] was 0.0053 µM.
In assay [2], `COc1cc(C(NC(=O)N[C@@H](CC(C)C)C(=O)OC(C)C)C(=O)O)ccc1O` (some centres undefined) registered a Ki of 0.081 µM.
Compound `O=C(N[C@@H](CCCCNC(=O)c1ccc(I)cc1)C(=O)O)N[C@@H](Cc1cscn1)C(=O)O` yielded a Ki in assay [1] of 0.0161 µM.
Take `COC(=O)[C@H](CC(C)C)NC(=O)N[C@H](C(=O)O)c1ccc(O)c(Br)c1`: the inhibition constant Ki in assay [2] worked out at 0.4 µM.
The same measure, in the same setting: with `CC(C)C[C@H](NC(=O)N[C@@H](Cc1cccc(C(=O)O)c1)C(=O)O)C(=O)O` the figure was 3 µM; with `COc1cc(C(NC(=O)N[C@@H](CC(C)C)C(=O)O)C(=O)O)ccc1O` (some centres undefined), 0.25 µM; with `CC(C)C[C@H](NC(=O)N[C@H](C(=O)O)c1ccc(O)cc1)C(=O)O`, 0.775 µM.
In assay [1], `CCC[C@H](NC(=O)N[C@@H](CCCCNC(=O)c1ccc(I)cc1)C(=O)O)C(=O)O` came in with a Ki of 0.0523 µM. This lies in the double-digit nanomolar range.
On the same count and under the same terms, with `O=C(N[C@@H](CCCCNC(=O)c1ccc(I)cc1)C(=O)O)N[C@H](Cc1cccs1)C(=O)O` the figure was 0.795 µM.
Take `COC(=O)[C@H](CC(C)C)NC(=O)N[C@@H](CCCSC)C(=O)O`: the inhibition constant Ki in assay [2] is more than 1000 µM.
Still for that read-out and setting: with `COC(=O)[C@H](CC(C)C)NC(=O)NC(C(=O)O)c1ccc(F)c(OC)c1` (some centres undefined) the figure was more than 1000 µM; with `COC(=O)[C@H](CC(C)C)NC(=O)N[C@H](C(=O)O)c1cc(Br)c(O)c(Br)c1`, 0.575 µM.
Same read-out and setting: with `COC(=O)[C@H](CC(C)C)NC(=O)N[C@@H](CCC(N)=O)C(=O)O` the figure was 7.5 µM.
As for `CSCCC[C@H](NC(=O)N[C@@H](CC(C)C)C(=O)O)C(=O)O`, in assay [2], the Ki was 3.5 µM. This Ki lies about 2.1-fold lower than the previous one.
Same read-out and setting: with `COC(=O)[C@H](CC(C)C)NC(=O)NC(C(=O)O)c1cccc(O)c1` (some centres undefined) the figure was more than 1000 µM; with `CC(C)C[C@H](NC(=O)NC(C(=O)O)c1ccc(O)c(I)c1)C(=O)OC(C)C` (some centres undefined), 0.275 µM.
With `COc1cc(C(NC(=O)N[C@@H](CCCCNC(=O)c2ccc(I)cc2)C(=O)O)C(=O)O)ccc1O` (some centres undefined), the Ki in assay [1] turned out to be 0.285 µM.

A word on the Ki: it is the equilibrium dissociation constant of an inhibitor or competing ligand from its target.
